# Laboratory results published in ChEMBL document CHEMBL1201862, “PubChem BioAssay data set” (2004).
#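 Growth conditions: 96-well plates. Treatment: test compound, 48 hours, 5 concentrations. Analysis: linear interpolation between bracketing concentrations; unreached endpoints set to highest concentration. The concentration for 50% growth inhibition is given as GI50.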 Active and inactive are the calls of the source. Rule as the data show it: active = GI50 up to about 1.1 µM and inactive = higher.
# What was measured:
# Assay in all cases: NCI tumour cell line growth inhibition, 48 h
# 786-0 = system: 786-0
# A549 = system: A549
# ACHN = system: ACHN
# CAKI-1 = system: CAKI-1
# CCRF-CEM = system: CCRF-CEM
# COLO 205 = system: COLO 205
# DLD-1 = system: DLD-1
# DMS-273 = system: DMS-273
# EKVX = system: EKVX
# HCC 2998 = system: HCC 2998
# HCT-116 = system: HCT-116
# HCT-15 = system: HCT-15
# HL-60 = system: HL-60
# HOP-18 = system: HOP-18
# HT-29 = system: HT-29
# IGROV-1 = system: IGROV-1
# K562 = system: K562
# KM12 = system: KM12
# LXFL 529 = system: LXFL 529
# M14 = system: M14
# M19-MEL = system: M19-MEL
# MOLT-4 = system: MOLT-4
# Malme-3M = system: Malme-3M
# NCI-H226 = system: NCI-H226
# NCI-H23 = system: NCI-H23
# NCI-H460 = system: NCI-H460
# NCI-H522 = system: NCI-H522
# OVCAR-3 = system: OVCAR-3
# OVCAR-4 = system: OVCAR-4
# OVCAR-5 = system: OVCAR-5
# OVCAR-8 = system: OVCAR-8
# RPMI-8226 = system: RPMI-8226
# SF-268 = system: SF-268
# SF-295 = system: SF-295
# SF-539 = system: SF-539
# SK-MEL-28 = system: SK-MEL-28
# SK-MEL-2 = system: SK-MEL-2
# SK-MEL-5 = system: SK-MEL-5
# SK-OV-3 = system: SK-OV-3
# SN12C = system: SN12C
# SNB-75 = system: SNB-75
# SNB-78 = system: SNB-78
# TK-10 = system: TK-10
# U-251 = system: U-251
# UACC-257 = system: UACC-257
# UO-31 = system: UO-31
# XF498 = system: XF498
# DMS-114 = system: DMS-114
# HOP-92 = system: HOP-92
# LOX IMVI = system: LOX IMVI
# RXF 393 = system: RXF 393
# SNB-19 = system: SNB-19
# SR = system: SR
# SW-620 = system: SW-620
# A498 = system: A498
# HOP-62 = system: HOP-62
# KM-20L2 = system: KM-20L2
# UACC-62 = system: UACC-62
structure (smiles),measurement,setting,value
CCCN(CCC)c1c([N+](=O)[O-])cc(C(=O)N(CCO)CCO)cc1[N+](=O)[O-],GI50,786-0,> 100 µM (inactive)
same,GI50,A549,> 100 µM (inactive)
same,GI50,ACHN,> 100 µM (inactive)
same,GI50,CAKI-1,> 100 µM (inactive)
same,GI50,CCRF-CEM,> 100 µM (inactive)
same,GI50,COLO 205,> 100 µM (inactive)
same,GI50,DLD-1,> 100 µM (inactive)
same,GI50,DMS-273,> 100 µM (inactive)
same,GI50,EKVX,57.4 µM (inactive)
same,GI50,HCC 2998,> 100 µM (inactive)
same,GI50,HCT-116,> 100 µM (inactive)
same,GI50,HCT-15,> 100 µM
same,GI50,HL-60,> 100 µM (inactive)
same,GI50,HOP-18,> 100 µM (inactive)
same,GI50,HT-29,> 100 µM (inactive)
same,GI50,IGROV-1,> 100 µM (inactive)
same,GI50,K562,61.4 µM (inactive)
same,GI50,KM12,> 100 µM (inactive)
same,GI50,LXFL 529,> 100 µM (inactive)
same,GI50,M14,> 100 µM (inactive)
same,GI50,M19-MEL,> 100 µM (inactive)
same,GI50,MOLT-4,> 100 µM (inactive)
same,GI50,Malme-3M,> 100 µM (inactive)
same,GI50,NCI-H226,> 100 µM (inactive)
same,GI50,NCI-H23,> 100 µM (inactive)
same,GI50,NCI-H460,> 100 µM (inactive)
same,GI50,NCI-H522,> 100 µM (inactive)
same,GI50,OVCAR-3,> 100 µM (inactive)
same,GI50,OVCAR-4,> 100 µM (inactive)
same,GI50,OVCAR-5,> 100 µM (inactive)
same,GI50,OVCAR-8,> 100 µM (inactive)
same,GI50,RPMI-8226,> 100 µM (inactive)
same,GI50,SF-268,> 100 µM (inactive)
same,GI50,SF-295,> 100 µM (inactive)
same,GI50,SF-539,> 100 µM (inactive)
same,GI50,SK-MEL-28,> 100 µM (inactive)
same,GI50,SK-MEL-2,> 100 µM (inactive)
same,GI50,SK-MEL-5,> 100 µM (inactive)
same,GI50,SK-OV-3,> 100 µM (inactive)
same,GI50,SN12C,> 100 µM (inactive)
same,GI50,SNB-75,> 100 µM (inactive)
same,GI50,SNB-78,> 100 µM (inactive)
same,GI50,TK-10,> 100 µM (inactive)
same,GI50,U-251,> 100 µM (inactive)
same,GI50,UACC-257,> 100 µM (inactive)
same,GI50,UO-31,> 100 µM (inactive)
same,GI50,XF498,97.1 µM (inactive)
Cn1c(=O)c(C#N)c(O)c2cc3ccccc3nc21,GI50,A549,> 100 µM (inactive)
same,GI50,ACHN,> 100 µM (inactive)
same,GI50,CAKI-1,> 100 µM (inactive)
same,GI50,CCRF-CEM,> 100 µM (inactive)
same,GI50,COLO 205,> 100 µM (inactive)
same,GI50,DLD-1,> 100 µM (inactive)
same,GI50,DMS-114,> 100 µM (inactive)
same,GI50,DMS-273,> 100 µM (inactive)
same,GI50,EKVX,> 100 µM (inactive)
same,GI50,HCC 2998,> 100 µM (inactive)
same,GI50,HCT-116,> 100 µM (inactive)
same,GI50,HCT-15,> 100 µM
same,GI50,HL-60,> 100 µM (inactive)
same,GI50,HOP-18,> 100 µM (inactive)
same,GI50,HOP-92,> 100 µM (inactive)
same,GI50,IGROV-1,> 100 µM (inactive)
same,GI50,K562,> 100 µM (inactive)
same,GI50,KM12,> 100 µM (inactive)
same,GI50,LOX IMVI,> 100 µM (inactive)
same,GI50,LXFL 529,> 100 µM (inactive)
same,GI50,M14,> 100 µM (inactive)
same,GI50,M19-MEL,> 100 µM (inactive)
same,GI50,MOLT-4,> 100 µM (inactive)
same,GI50,Malme-3M,> 100 µM (inactive)
same,GI50,NCI-H226,> 100 µM (inactive)
same,GI50,NCI-H23,> 100 µM (inactive)
same,GI50,NCI-H460,> 100 µM (inactive)
same,GI50,OVCAR-4,> 100 µM (inactive)
same,GI50,OVCAR-8,> 100 µM (inactive)
same,GI50,RPMI-8226,> 100 µM (inactive)
same,GI50,RXF 393,> 100 µM (inactive)
same,GI50,SF-268,> 100 µM (inactive)
same,GI50,SF-295,> 100 µM (inactive)
same,GI50,SF-539,> 100 µM (inactive)
same,GI50,SK-MEL-28,> 100 µM (inactive)
same,GI50,SK-MEL-2,> 100 µM (inactive)
same,GI50,SK-MEL-5,> 100 µM (inactive)
same,GI50,SK-OV-3,> 100 µM (inactive)
same,GI50,SN12C,> 100 µM (inactive)
same,GI50,SNB-19,> 100 µM (inactive)
same,GI50,SNB-75,44.1 µM (inactive)
same,GI50,SNB-78,> 100 µM (inactive)
same,GI50,SR,> 100 µM (inactive)
same,GI50,SW-620,> 100 µM (inactive)
same,GI50,TK-10,> 100 µM (inactive)
same,GI50,U-251,> 100 µM (inactive)
same,GI50,UACC-257,> 100 µM (inactive)
same,GI50,UO-31,> 100 µM (inactive)
same,GI50,XF498,> 100 µM (inactive)
CCOc1ccc(NC(=O)/C(=C/c2ccccc2)C(C)=O)cc1,GI50,786-0,12.2 µM (inactive)
same,GI50,A498,18.1 µM (inactive)
same,GI50,A549,22.2 µM (inactive)
same,GI50,ACHN,15.3 µM (inactive)
same,GI50,CAKI-1,11.7 µM (inactive)
same,GI50,CCRF-CEM,2.87 µM (inactive)
same,GI50,COLO 205,17.2 µM (inactive)
same,GI50,DLD-1,7.38 µM (inactive)
same,GI50,DMS-114,11.9 µM (inactive)
same,GI50,DMS-273,9.14 µM (inactive)
same,GI50,EKVX,17.8 µM (inactive)
same,GI50,HCC 2998,13.3 µM (inactive)
same,GI50,HCT-116,4.94 µM (inactive)
same,GI50,HCT-15,8.99 µM
same,GI50,HL-60,2.32 µM (inactive)
same,GI50,HOP-18,12.9 µM (inactive)
same,GI50,HOP-62,16.3 µM (inactive)
same,GI50,HOP-92,14.1 µM (inactive)
same,GI50,HT-29,10.3 µM (inactive)
same,GI50,IGROV-1,10.2 µM (inactive)
same,GI50,K562,5.27 µM (inactive)
same,GI50,KM-20L2,12.9 µM (inactive)
same,GI50,KM12,7.1 µM (inactive)
same,GI50,LOX IMVI,7.14 µM (inactive)
same,GI50,M14,12.3 µM (inactive)
same,GI50,M19-MEL,10.8 µM (inactive)
same,GI50,MOLT-4,3.73 µM (inactive)
same,GI50,Malme-3M,16.5 µM (inactive)
same,GI50,NCI-H226,13.2 µM (inactive)
same,GI50,NCI-H23,10.9 µM (inactive)
same,GI50,NCI-H460,17.4 µM (inactive)
same,GI50,NCI-H522,2.12 µM (inactive)
same,GI50,OVCAR-3,12.5 µM (inactive)
same,GI50,OVCAR-4,13.4 µM (inactive)
same,GI50,OVCAR-5,17.6 µM (inactive)
same,GI50,OVCAR-8,12.1 µM (inactive)
same,GI50,RPMI-8226,2.94 µM (inactive)
same,GI50,RXF 393,5.32 µM (inactive)
same,GI50,SF-268,11.3 µM (inactive)
same,GI50,SF-295,13.5 µM (inactive)
same,GI50,SF-539,10.1 µM (inactive)
same,GI50,SK-MEL-28,12.9 µM (inactive)
same,GI50,SK-MEL-2,13.2 µM (inactive)
same,GI50,SK-MEL-5,12.2 µM (inactive)
same,GI50,SK-OV-3,24.6 µM (inactive)
same,GI50,SN12C,13.2 µM (inactive)
same,GI50,SNB-19,12.1 µM (inactive)
same,GI50,SNB-75,4.59 µM (inactive)
same,GI50,SNB-78,13.4 µM (inactive)
same,GI50,SW-620,13.2 µM (inactive)
same,GI50,TK-10,17.3 µM (inactive)
same,GI50,U-251,12.6 µM (inactive)
same,GI50,UACC-257,12.2 µM (inactive)
same,GI50,UACC-62,5.04 µM (inactive)
same,GI50,UO-31,9.66 µM (inactive)
same,GI50,XF498,14.4 µM (inactive)
